≈ marks a conversion by molar mass, not a printed value. Where “and” joins values, the source holds several entries; their conditions need not be identical. Equal entries are not always repeated. Structures can show the parent of a compound that is named as a salt.
How the values were obtained:
[1] = Water solubility (Bookser's method); format: physicochemical; conditions: thermodynamic from solid, deionized water, saturated solution
Source text: (§1) Bookser's method was applied to obtain the water solubility of sodium organosulphonates 3–8 and Suramin (9) by use of HPLC with a UV detector (see Table 1). Furthermore, the “shake–flask method” [28] was applied to obtain their hydrophobicity by use of n-octanol and water. The apparent partition coefficient (P) shown in Table 1 is the ratio of the concentration in n-octanol to the total concentration (i.e., ionized plus non-ionized) of the species in the aqueous phase, [29].
A stock solution was prepared by dissolving a precisely weighed amount of Suramin derivatives in deionized water (1.0 ml). The UV absorption maximum of each compound was measured by dilution of the solution with deionized water as necessary. A saturated solution of each compound was then prepared by use of deionized water (1.0 ml) in the presence of an excess of Suramin derivatives for 1.0 hour. The obtained saturated solution was filtered to remove solid compound through a Millipore filter (0.45 μm) and was scanned by UV spectroscopy at the wavelength of the absorption maximum previously determined.

[2] = biological target: T1, hNV-RdRp (Norovirus GII (human norovirus; Norwalk-like virus), UniProt A0ZNP5); experiment: In-vitro RdRp inhibition assay (PicoGreen fluorescence, poly(C)/oligoG12); format: biochemical; conditions: poly(C) template, G12 primer, GTP 100 μM; read-out: IC50 hNVRdRp
Experimental: (§2) hNV and mNV-RdRp inhibition assays were performed monitoring the impairment of RNA synthesis as a function of inhibitor concentration, as previously described. Briefly, RdRp activity was assessed in vitro (measuring PicoGreen fluorescence) following the synthesis of double-stranded RNA from a single-stranded RNA poly(C) template annealed with a G12 primer. The assay can easily be adapted for any viral RNA polymerase.
(§3) RdRp assays were performed as previously described. In brief poly(C) (MP Biomedicals) was used as template annealed with oligoG12 as primer (62.5 nM final concentration) and GTP (100 μM final concentration) as substrate, in a 200 μl reaction mixture containing 20 mM Tris/HCl pH 7.5, 25 mM NaCl, 5 mM MgCl2, 0.3 mM MnCl2, 1 mM DTT, PicoGreen Quantitation Reagent (Molecular Probes) diluted 1/200 20 U ml−1 RiboLock Ribonuclease Inhibitor (Fermentas). Reactions were started by the addition of GTP following the fluorescence of samples in a fluorescence reader (Varian, Cary Eclipse Fluorescence Spectrophotometer).

[3] = biological target: T2, mNV-RdRp (Norovirus, UniProt Q80J95); experiment: as above; format: biochemical; conditions: poly(C) template, G12 primer, GTP 100 μM; read-out: IC50 mNVRdRp
T2 construct: Solutions of 4 μl of the NV-RdRp domain (final hNV-RdRp concentration 7 μM, final mNV-RdRp concentration 1.6 μM); made in house
Experimental: as §2, §3

[4] = n-Octanol/water partition coefficient (shake-flask method); format: physicochemical; conditions: n-octanol / pH 7.4 phosphate buffer, 25 °C, average of three experiments, read-out: hydrophobicity log P
Source text: as §1
The n-octanol/water partition coefficient of Suramin derivatives was determined by the shake-flask method. n-Octanol and pH 7.4 phosphate buffer were mutually saturated for 4.0 hours, and the phases were separated. A stock solution of each Suramin derivative was prepared using pH 7.4 phosphate buffer solution. Suramin derivatives were partitioned between n-octanol and pH 7.4 phosphate buffer. Then the phase mixtures were shaken for 1 hour at constant 25 °C. After separation, the absorbance of the phosphate buffer solutions (pH 7.4) was measured by UV spectrophotometry. Three replicates were performed for each compound. The P value corresponded to the quotient between n-octanol and buffer concentrations of the drug. The log P values were an average of three independent experiments.

[5] = biological target: T1, hNV-RdRp; experiment: Thermofluorimetric (thermal shift) assay; format: binding; conditions: inhibitor 4 μM, hNV-RdRp 7 μM, Sypro Orange; free enzyme Tm 41.5
Experimental: (§4) In order to exclude that 8 and 6 inhibition might be linked to some form of RdRp destabilization/aggregation/denaturation, a process generally reflected by a variation of the protein melting temperature (Tm), we performed thermofluorimetric assays on free and inhibited NV-RdRps.
(§5) Thermofluorimetric (Thermal shift) assays for the evaluation of the hNV-RdRp melting temperature (Tm) in the absence/presence of the inhibitors, were conducted in a MiniOpticon Real Time PCR Detection System (Bio-Rad), using the fluorescent dye Sypro Orange. Solutions of 4 μl of the NV-RdRp domain (final hNV-RdRp concentration 7 μM, final mNV-RdRp concentration 1.6 μM) were diluted in 9.5 μl of its buffer, and mixed with 3.5 μl of Sypro orange (Sigma) diluted 60×, and 1 μl of 6 or 8 (4 μM final concentration). In control samples the inhibitors were replaced by water. The sample plates were heated from 20 to 90°C with a heating rate of 0.2 °C/min. Fluorescence intensities were measured within excitation/emission ranges of 470–505 nm and 540–700 nm, respectively.

[6] = biological target: T2, mNV-RdRp; experiment: Thermofluorimetric (thermal shift) assay; format: binding; conditions: inhibitor 4 μM, mNV-RdRp 1.6 μM, Sypro Orange; free enzyme Tm 39.6 ±0.2
Experimental: as §4, §5

[7] = Solubility in organic solvents (observation during synthesis); format: physicochemical; conditions: most organic solvents, including THF and DMSO
[8] = test system: NV-RdRp; set-up: method as in earlier work; conditions: ref 34 (Tarantino et al., in press); cited from earlier work
[9] = statement in the Introduction, no reference given; cited from earlier work

SMILES	solubility at 1 h [1]	IC50 [2]	IC50 [3]	logP at 1 h [4]	hNV-RdRp Tm in the presence of inhibitor [5]	mNV-RdRp Tm in the presence of inhibitor [6]	Solubility in organic solvents [7]	inhibitory potency against NV-RdRp [8]	log P [9]
Cc1ccc(C(=O)Nc2ccc(S(=O)(=O)O)c3cccc(S(=O)(=O)O)c23)cc1[N+](=O)[O-] [Compound 3, 4-(4-Methyl-3-nitrobenzamido)naphthalene-1,5-disulphonate Acid Disodium Salt]	260 mg/mL	1.28 ± 0.07 µM	0.2 ± 0.01 µM	-2.19					
Cc1ccc(C(=O)Nc2ccc(S(=O)(=O)O)c3cccc(S(=O)(=O)O)c23)cc1NC(=O)c1cccc(N)c1 [Compound 7, 4-[3-(3-Aminobenzamido)-4-methylbenzamido]naphthalene-1,5-disulphonate Acid Disodium Salt]	249 mg/mL	1.1 ± 0.05 µM	0.16 ± 0.006 µM	-2.11			very poor		
Cc1nc(N=Nc2cc(S(=O)(=O)O)c3cc([N+](=O)[O-])cc(S(=O)(=O)O)c3c2)c(COP(=O)(O)O)c(C=O)c1O [PPNDS]								low nM	

The next lines start with results.

solubility at 1 h [1]	IC50 [2]	IC50 [3]	logP at 1 h [4]	hNV-RdRp Tm in the presence of inhibitor [5]	mNV-RdRp Tm in the presence of inhibitor [6]	Solubility in organic solvents [7]	SMILES	inhibitory potency against NV-RdRp [8]	log P [9]
339 mg/mL	1.1 ± 0.2 µM	0.16 ± 0.007 µM	-2.33				Cc1ccc(C(=O)Nc2ccc(S(=O)(=O)O)c3cccc(S(=O)(=O)O)c23)cc1N [Compound 4, 4-(3-Amino-4-methylbenzamido)naphthalene-1,5-disulphonate Acid Disodium Salt]		
179 mg/mL	1 ± 0.09 µM	0.115 ± 0.015 µM	-1.64	41.2±0.2 °C	39.4±0.3 °C		Cc1ccc(C(=O)Nc2ccc(S(=O)(=O)O)c3cccc(S(=O)(=O)O)c23)cc1NC(=O)c1cccc([N+](=O)[O-])c1 [Compound 6, 4-[4-Methyl-3-(3-nitrobenzamido)benzamido]naphthalene-1,5-disulsulphonate Acid Disodium Salt]		
114 mg/mL	0.028 ± 0.004 µM	~0.06 µM and 0.06 µM	-1.61	41.4 °C	39.8 ±0.2 °C		Cc1ccc(C(=O)Nc2ccc(S(=O)(=O)O)c3cccc(S(=O)(=O)O)c23)cc1NC(=O)c1cccc(NC(=O)Nc2cccc(C(=O)Nc3cc(C(=O)Nc4ccc(S(=O)(=O)O)c5cccc(S(=O)(=O)O)c45)ccc3C)c2)c1 [Compound 8, 4-4′-(Carbonylbis[imino-3,1-phenylenecarbonylimino(4-methyl-3,1-phenylene)carbonylimino])bis-1,5-naphthalenedisulphonate Acid Tetrasodium Salt]		
138 mg/mL (≈ 106 mM)	0.027 ± 0.003 µM	0.07 ± 0.003 µM	-3.42				Cc1ccc(C(=O)Nc2ccc(S(=O)(=O)O)c3cc(S(=O)(=O)O)cc(S(=O)(=O)O)c23)cc1NC(=O)c1cccc(NC(=O)Nc2cccc(C(=O)Nc3cc(C(=O)Nc4ccc(S(=O)(=O)O)c5cc(S(=O)(=O)O)cc(S(=O)(=O)O)c45)ccc3C)c2)c1 [Suramin (9), Suramin]		lower than 0
